# Values of other authors in patent US4820521A, “Sustained absorption pharmaceutical composition” (priority 1983, dated 1989).
# Tests used:
# [1] = versus caffeine
# [2] = tested on: involuntary muscle; settings: versus theobromine and caffeine
# [3] = human, in vivo
structure (smiles),measurement,setting,value
"Cn1c(=O)c2[nH]cnc2n(C)c1=O [Theophylline, 1,3-dimethylxanthine]",diuretic action (in words),[1],stronger than that of caffeine is of short duration
same,relaxant of involuntary muscle (in words),[2],more powerful relaxant of involuntary muscle than either theobromine or caffeine
same,minimum effective plasma concentration,in vivo,about 5 mcg/ml
same,average therapeutic concentration,plasma,about 10 mcg/ml
same,therapeutic range of concentration,plasma,10 to 20 µg/mL
same,toxicity of levels above 20 mcg/ml,plasma levels above 20 mcg/ml,toxic
same,effect of levels below 10 mcg/ml,plasma levels below 10 mcg/ml,ineffective
same,apparent biological half-life,[3],4-9 hours
